Laboratory results: patent US10544143B2, “4-azaindole compounds” (BRISTOL-MYERS SQUIBB COMPANY, priority 2017, dated 2020)
Like-named read-outs stand apart in the source and are kept apart here.

Columns and labels:
human TLR9 = human TLR9 (Homo sapiens (Human), UniProt Q9NR96); experiment: TLR9 inhibition reporter assay (HEK-Blue SEAP);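 note: SEAP driven by an IFN-β minimal promoter with NF-κB and AP-1 sites, read after 22 h, compounds dosed 0.05 nM–50 µM, inhibition scaled between agonist plus DMSO and reference-inhibitor wells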
human TLR8 = human TLR8 (Homo sapiens (Human), UniProt Q9NR97); experiment: TLR8 inhibition reporter assay (HEK-Blue SEAP);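 note: SEAP driven by IFN-β minimal promoter carrying NF-κB and AP-1 sites, compounds dosed 0.05 nM to 50 µM for 22 h, inhibition scaled between agonist-plus-DMSO and reference-inhibitor wells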
human TLR7 = human TLR7 (Homo sapiens (Human), UniProt Q9NYK1); experiment: TLR7 inhibition reporter assay (HEK-Blue SEAP); type: cell-based
[1] = read-out: TLR9 IC50, HEK-Blue cells overexpressing human TLR9, ODN2006 5 nM stimulation, SEAP reporter
[2] = read-out: TLR8 IC50, HEK-Blue cells overexpressing human TLR8, R848 15.9 μM stimulation, SEAP reporter
[3] = HEK-Blue cells overexpressing human TLR7, gardiquimod 7.5 μM stimulation, SEAP reporter

human TLR9, sequence (Q9NR96 26-1032): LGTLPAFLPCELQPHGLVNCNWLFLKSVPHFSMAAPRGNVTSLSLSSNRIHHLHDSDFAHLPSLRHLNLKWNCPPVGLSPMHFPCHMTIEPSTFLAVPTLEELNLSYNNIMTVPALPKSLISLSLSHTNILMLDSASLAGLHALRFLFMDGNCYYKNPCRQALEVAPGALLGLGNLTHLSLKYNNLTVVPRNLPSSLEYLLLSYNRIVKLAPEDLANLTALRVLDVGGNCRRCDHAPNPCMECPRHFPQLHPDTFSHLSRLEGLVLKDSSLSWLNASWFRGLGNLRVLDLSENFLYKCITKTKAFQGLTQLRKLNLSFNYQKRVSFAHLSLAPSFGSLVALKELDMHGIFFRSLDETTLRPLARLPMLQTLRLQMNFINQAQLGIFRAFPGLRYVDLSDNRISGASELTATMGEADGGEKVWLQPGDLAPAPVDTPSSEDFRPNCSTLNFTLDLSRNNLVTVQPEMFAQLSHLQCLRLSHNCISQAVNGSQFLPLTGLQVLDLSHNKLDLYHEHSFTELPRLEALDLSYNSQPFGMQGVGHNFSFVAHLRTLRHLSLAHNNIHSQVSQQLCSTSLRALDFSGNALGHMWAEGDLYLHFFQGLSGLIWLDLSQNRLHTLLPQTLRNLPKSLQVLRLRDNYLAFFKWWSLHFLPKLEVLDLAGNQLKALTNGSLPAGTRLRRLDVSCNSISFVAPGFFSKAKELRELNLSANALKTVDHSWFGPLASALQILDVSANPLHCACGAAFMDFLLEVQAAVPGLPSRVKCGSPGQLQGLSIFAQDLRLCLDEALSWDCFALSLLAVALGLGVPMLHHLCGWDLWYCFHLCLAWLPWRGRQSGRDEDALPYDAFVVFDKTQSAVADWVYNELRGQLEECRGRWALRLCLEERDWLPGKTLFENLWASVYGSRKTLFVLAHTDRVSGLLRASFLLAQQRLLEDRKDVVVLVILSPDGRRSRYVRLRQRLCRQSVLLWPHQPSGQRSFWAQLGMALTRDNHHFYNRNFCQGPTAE
human TLR7, sequence (Q9NYK1 27-1049): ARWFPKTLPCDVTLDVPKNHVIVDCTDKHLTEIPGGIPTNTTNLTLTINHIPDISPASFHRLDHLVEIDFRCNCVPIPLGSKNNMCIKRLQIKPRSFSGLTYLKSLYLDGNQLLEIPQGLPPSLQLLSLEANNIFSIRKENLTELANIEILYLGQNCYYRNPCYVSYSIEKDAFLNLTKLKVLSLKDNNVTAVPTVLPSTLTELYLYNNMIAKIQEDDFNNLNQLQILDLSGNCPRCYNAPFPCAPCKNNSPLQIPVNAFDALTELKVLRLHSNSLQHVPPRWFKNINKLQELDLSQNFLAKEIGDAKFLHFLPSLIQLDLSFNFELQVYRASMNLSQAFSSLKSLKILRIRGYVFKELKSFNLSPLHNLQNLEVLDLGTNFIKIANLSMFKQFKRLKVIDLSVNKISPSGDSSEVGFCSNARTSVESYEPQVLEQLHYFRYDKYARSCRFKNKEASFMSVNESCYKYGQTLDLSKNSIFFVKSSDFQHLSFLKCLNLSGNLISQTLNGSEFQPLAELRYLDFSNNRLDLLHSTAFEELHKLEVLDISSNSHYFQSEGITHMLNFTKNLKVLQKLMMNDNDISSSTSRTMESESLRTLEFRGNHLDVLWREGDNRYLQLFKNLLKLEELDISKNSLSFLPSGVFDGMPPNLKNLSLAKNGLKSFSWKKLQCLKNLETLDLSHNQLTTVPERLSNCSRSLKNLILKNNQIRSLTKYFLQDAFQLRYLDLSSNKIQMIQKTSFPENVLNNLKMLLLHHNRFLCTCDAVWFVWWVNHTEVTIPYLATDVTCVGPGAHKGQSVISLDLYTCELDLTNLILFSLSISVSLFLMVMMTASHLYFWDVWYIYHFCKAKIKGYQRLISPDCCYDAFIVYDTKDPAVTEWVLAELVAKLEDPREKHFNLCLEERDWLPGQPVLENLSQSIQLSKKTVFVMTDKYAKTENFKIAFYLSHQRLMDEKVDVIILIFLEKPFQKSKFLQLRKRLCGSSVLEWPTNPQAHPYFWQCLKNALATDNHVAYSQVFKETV
human TLR8, sequence (Q9NR97 27-1041): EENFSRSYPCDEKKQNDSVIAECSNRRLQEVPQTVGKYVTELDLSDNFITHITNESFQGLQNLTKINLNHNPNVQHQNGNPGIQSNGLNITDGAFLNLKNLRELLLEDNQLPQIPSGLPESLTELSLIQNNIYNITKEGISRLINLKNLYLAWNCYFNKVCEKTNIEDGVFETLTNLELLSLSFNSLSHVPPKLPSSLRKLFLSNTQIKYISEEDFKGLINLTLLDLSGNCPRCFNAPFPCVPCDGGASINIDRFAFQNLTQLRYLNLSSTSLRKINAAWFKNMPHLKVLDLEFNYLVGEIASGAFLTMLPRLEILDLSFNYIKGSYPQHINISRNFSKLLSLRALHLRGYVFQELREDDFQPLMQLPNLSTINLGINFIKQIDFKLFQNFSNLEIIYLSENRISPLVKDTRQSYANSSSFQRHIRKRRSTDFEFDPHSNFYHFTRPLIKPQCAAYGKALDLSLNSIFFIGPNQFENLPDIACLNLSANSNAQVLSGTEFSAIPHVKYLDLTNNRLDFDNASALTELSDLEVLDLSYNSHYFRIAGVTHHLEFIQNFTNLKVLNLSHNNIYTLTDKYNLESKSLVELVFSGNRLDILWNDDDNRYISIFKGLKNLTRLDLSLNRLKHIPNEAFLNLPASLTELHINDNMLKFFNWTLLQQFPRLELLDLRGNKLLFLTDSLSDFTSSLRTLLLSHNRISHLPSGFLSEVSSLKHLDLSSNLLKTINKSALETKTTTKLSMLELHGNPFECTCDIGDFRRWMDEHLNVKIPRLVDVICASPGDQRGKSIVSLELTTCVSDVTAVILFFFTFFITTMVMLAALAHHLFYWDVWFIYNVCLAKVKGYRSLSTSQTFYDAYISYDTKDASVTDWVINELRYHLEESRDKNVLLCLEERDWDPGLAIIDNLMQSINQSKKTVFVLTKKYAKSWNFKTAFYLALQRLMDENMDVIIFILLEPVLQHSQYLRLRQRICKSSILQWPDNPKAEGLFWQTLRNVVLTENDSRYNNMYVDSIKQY

| SMILES | IC50 (human TLR9; TLR9 IC50, HEK-Blue human TLR9 cells, ODN2006 5 nM) [nM] | IC50 (human TLR8; TLR8 IC50, HEK-Blue human TLR8 cells, R848 15.9 μM) [nM] | IC50 (human TLR7; HEK-Blue human TLR7 cells, gardiquimod 7.5 μM) [nM] | IC50 (human TLR9; [1]) [nM] | IC50 (human TLR8; [2]) [nM] | IC50 (human TLR7; [3]) [nM] |
| --- | --- | --- | --- | --- | --- | --- |
| [2H]C([2H])([2H])N(C([2H])([2H])[2H])C([2H])([2H])C(=O)N1C([2H])([2H])C([2H])([2H])N(c2ccc3[nH]c(-c4cn5ncnc5c(C)c4C)c(C(C)C)c3n2)C([2H])([2H])C1([2H])[2H] (single isomer, unassigned) [Example 891] | 18000 | 0.93 | 0.64 | – | – | – |
| Cc1c(-c2[nH]c3ccc(N4CC(NC5CCOCC5)C4)nc3c2C(C)C)cn2ncnc2c1C [Example 1, 1-(2-(7,8-dimethyl-[1,2,4]triazolo[1,5-a]pyridin-6-yl)-3-isopropyl-1H-pyrrolo[3,2-b]pyridin-5-yl)-N-(tetrahydro-2H-pyran-4-yl)azetidin-3-amine] | – | – | – | 7730 | 3.8 | 20 |
| Cc1c(-c2[nH]c3ccc(N4CCNCC4)nc3c2C(C)C)cn2ncnc2c1C [Example 2, 6-(3-isopropyl-5-(piperazin-1-yl)-1H-pyrrolo[3,2-b]pyridin-2-yl)-7,8-dimethyl-[1,2,4]triazolo[1,5-a]pyridine] | – | – | – | 7320 | 0.27 | 1.7 |
| Cc1cc(-c2[nH]c3cc(F)c(C4CCNCC4)nc3c2C(C)C)cn2ncnc12 [Example 11, 6-(6-fluoro-3-isopropyl-5-(piperidin-4-yl)-1H-pyrrolo[3,2-b]pyridin-2-yl)-8-methyl-[1,2,4]triazolo[1,5-a]pyridine] | – | – | – | 6790 | 21 | 1.7 |
| Cc1c(-c2[nH]c3ccc(N4CC(N(C)C)C4)nc3c2C(C)C)cn2ncnc2c1C [Example 12] | – | – | – | 10100 | 1.6 | 10 |
| Cc1c(-c2[nH]c3ccc(N4CC(N(C)CC(=O)N(C)C)C4)nc3c2C(C)C)cn2ncnc2c1C [Example 21] | – | – | – | > 50000 | 46 | 91 |
| Cc1c(-c2[nH]c3ccc(N4CC(NCC(=O)N(C)C)C4)nc3c2C(C)C)cn2ncnc2c1C [Example 22] | – | – | – | 21100 | 12 | 56 |
| CNC1CN(c2ccc3[nH]c(-c4cn5ncnc5c(C)c4C)c(C(C)C)c3n2)C1 [Example 23] | – | – | – | > 50000 | > 3120 | > 3120 |
| Cc1c(-c2[nH]c3ccc(N4CC(N(C)C5CCOCC5)C4)nc3c2C(C)C)cn2ncnc2c1C [Example 24] | – | – | – | 14000 | 2.7 | 40 |
| Cc1c(-c2[nH]c3ccc(N4CC(N(C)C(=O)CN(C)C)C4)nc3c2C(C)C)cn2ncnc2c1C [Example 25] | – | – | – | 11700 | 117 | 181 |
| Cc1c(-c2[nH]c3ccc(N4CC(NCC(=O)N(C)C)C4)nc3c2C(C)C)cn2ncnc2c1C [Example 26] | – | – | – | > 50000 | 2130 | 1770 |
| COc1cc(-c2[nH]c3ccc(N4CC(NCC(=O)N(C)C)C4)nc3c2C(C)C)cn2ncnc12 [Example 27] | – | – | – | > 50000 | > 3120 | > 3120 |
| COc1cc(-c2[nH]c3ccc(N4CC(N(C)C(=O)CN(C)C)C4)nc3c2C(C)C)cn2ncnc12 [Example 28] | – | – | – | > 50000 | 1500 | 263 |
| COc1cc(-c2[nH]c3ccc(N4CC(NCC5(C)COC5)C4)nc3c2C(C)C)cn2ncnc12 [Example 30] | – | – | – | 22600 | 43 | 70 |
| CNC1CN(c2ccc3[nH]c(-c4cc(OC)c5ncnn5c4)c(C(C)C)c3n2)C1 [Example 31] | – | – | – | 6060 | 19 | 13 |
| CC(C)c1c(-c2cn(C)c3ncccc23)[nH]c2ccc(N3CC(N)C3)nc12 [Example 35] | – | – | – | 13800 | 282 | 589 |
| CC(C)c1c(-c2cn(C)c3ncccc23)[nH]c2ccc(N3CC(NC4CCOCC4)C3)nc12 [Example 36] | – | – | – | 22100 | > 3120 | > 3120 |
| CC(C)c1c(-c2cn(C)c3ncccc23)[nH]c2ccc(N3CC(NCC(=O)N(C)C)C3)nc12 [Example 37] | – | – | – | > 50000 | 465 | 1270 |
| Cc1c(-c2[nH]c3ccc(N4CC(O)C4)nc3c2C(C)C)cn2ncnc2c1C [Example 38] | – | – | – | 44400 | 5.2 | 21 |
| Cc1c(-c2[nH]c3ccc(N4CC(N5CCC(O)CC5)C4)nc3c2C(C)C)cn2ncnc2c1C [Example 40] | – | – | – | 7960 | 1.7 | 24 |
| Cc1c(-c2[nH]c3ccc(N4CC(N5CCS(=O)(=O)CC5)C4)nc3c2C(C)C)cn2ncnc2c1C [Example 41] | – | – | – | > 50000 | 177 | 264 |
| COC(=O)N1CCN(C2CN(c3ccc4[nH]c(-c5cn6ncnc6c(C)c5C)c(C(C)C)c4n3)C2)CC1 [Example 42] | – | – | – | > 50000 | 57 | 178 |
| Cc1c(-c2[nH]c3ccc(N4CC5(CCN(CCS(C)(=O)=O)CC5)C4)nc3c2C(C)C)cn2ncnc2c1C [Example 45] | – | – | – | 7280 | 20 | 22 |
| Cc1c(-c2[nH]c3ccc(N4CCC(N(Cc5c[nH]nn5)Cc5c[nH]nn5)CC4)nc3c2C(C)C)cn2ncnc2c1C [Example 48] | – | – | – | 31300 | 9.3 | 7.4 |
| CC(C)c1c(-c2cn(C)c3ncccc23)[nH]c2ccc(N3CCC(N(CC#N)CC#N)CC3)nc12 [Example 51] | – | – | – | 16300 | 7 | 5.1 |

Other lines, results leading:

| IC50 (human TLR9; TLR9 IC50, HEK-Blue human TLR9 cells, ODN2006 5 nM) [nM] | IC50 (human TLR8; TLR8 IC50, HEK-Blue human TLR8 cells, R848 15.9 μM) [nM] | IC50 (human TLR7; HEK-Blue human TLR7 cells, gardiquimod 7.5 μM) [nM] | IC50 (human TLR9; [1]) [nM] | IC50 (human TLR8; [2]) [nM] | IC50 (human TLR7; [3]) [nM] | SMILES |
| --- | --- | --- | --- | --- | --- | --- |
| – | – | – | 37 | 4060 | 471 | COc1ccc(-c2[nH]c3ccc(C4CCN(C5CCN(CC(C)C)CC5)CC4)nc3c2C)cc1OC [Example 5, 2-(3,4-dimethoxyphenyl)-5-(1′-isobutyl-[1,4′-bipiperidin]-4-yl)-3-methyl-1H-pyrrolo[3,2-b]pyridine] |
| – | – | – | 625 | 3.2 | 0.3 | CCN(CCN(C)C)C(=O)c1nc2c(C(C)C)c(-c3cc(OC)c4ncnn4c3)[nH]c2cc1C [Example 6, N-(2-(dimethylamino)ethyl)-N-ethyl-3-isopropyl-2-(8-methoxy-[1,2,4]triazolo[1,5-a]pyridin-6-yl)-6-methyl-1H-pyrrolo[3,2-b]pyridine-5-carboxamide] |
| – | – | – | 1050 | 5.3 | 0.42 | CNC(=O)CNC1CCC(c2ccc3[nH]c(-c4cc(OC)c5ncnn5c4)c(C(C)C)c3n2)C1 (stereo not drawn) [Example 10, 2-((3-(3-isopropyl-2-(8-methoxy-[1,2,4]triazolo[1,5-a]pyridin-6-yl)-1H-pyrrolo[3,2-b]pyridin-5-yl)cyclopentyl)amino)-N-methylacetamide] |
| – | – | – | 5020 | 1.9 | 3.2 | COc1cc(-c2[nH]c3ccc(N4CC(N(C)C)C4)nc3c2C(C)C)cn2ncnc12 [Example 13] |
| – | – | – | 4330 | 4.2 | 11 | Cc1c(-c2[nH]c3ccc(N4CC(N)C4)nc3c2C(C)C)cn2ncnc2c1C [Example 14] |
| – | – | – | 1940 | 4.3 | 7.3 | Cc1c(-c2[nH]c3ccc(N4CC(NC(=O)CN(C)C)C4)nc3c2C(C)C)cn2ncnc2c1C [Example 15] |
| – | – | – | 635 | 2.1 | 0.6 | COc1cc(-c2[nH]c3ccc(N4CC(N)C4)nc3c2C(C)C)cn2ncnc12 [Example 16] |
| – | – | – | 1100 | 7.7 | 3.7 | COc1cc(-c2[nH]c3ccc(N4CC(NC(=O)CN(C)C)C4)nc3c2C(C)C)cn2ncnc12 [Example 17] |
| – | – | – | 1490 | 14 | 14 | COc1cc(-c2[nH]c3ccc(N4CC(NCC(=O)N(C)C)C4)nc3c2C(C)C)cn2ncnc12 [Example 18] |
| – | – | – | 6020 | 73 | 125 | Cc1c(-c2[nH]c3ccc(N4CC(N(C)C(=O)CN(C)C)C4)nc3c2C(C)C)cn2ncnc2c1C [Example 19] |
| – | – | – | 614 | 1.3 | 2.7 | CNC1CN(c2ccc3[nH]c(-c4cn5ncnc5c(C)c4C)c(C(C)C)c3n2)C1 [Example 20] |
| – | – | – | 2830 | 2.7 | 4.6 | COc1cc(-c2[nH]c3ccc(N4CC(NC5CCOCC5)C4)nc3c2C(C)C)cn2ncnc12 [Example 29] |
| – | – | – | 1880 | 6.9 | 7.3 | CC(C)c1c(-c2cn(C)c3ncccc23)[nH]c2ccc(N3CC(N)C3)nc12 [Example 32] |
| – | – | – | 1920 | 1.9 | 6.5 | CC(C)c1c(-c2cn(C)c3ncccc23)[nH]c2ccc(N3CC(NC4CCOCC4)C3)nc12 [Example 33] |
| – | – | – | 1220 | 6 | 17 | CC(C)c1c(-c2cn(C)c3ncccc23)[nH]c2ccc(N3CC(NCC(=O)N(C)C)C3)nc12 [Example 34] |
| – | – | – | 560 | 7.8 | 2 | Cc1c(-c2[nH]c3ccc(N4CC5(CCNCC5)C4)nc3c2C(C)C)cn2ncnc2c1C [Example 43] |
| – | – | – | 3370 | 15 | 12 | Cc1c(-c2[nH]c3ccc(N4CC5(CCN(CC(=O)N(C)C)CC5)C4)nc3c2C(C)C)cn2ncnc2c1C [Example 44] |
| – | – | – | 1680 | 4.9 | 4.3 | Cc1c(-c2[nH]c3ccc(N4CC5(CCN(C(C)C)CC5)C4)nc3c2C(C)C)cn2ncnc2c1C [Example 46] |
| – | – | – | 2670 | 0.62 | 1 | Cc1c(-c2[nH]c3ccc(N4CCC(NC5CCOCC5)CC4)nc3c2C(C)C)cn2ncnc2c1C [Example 49] |
| – | – | – | 2840 | 0.39 | 0.49 | Cc1c(-c2[nH]c3ccc(N4CCC(N)CC4)nc3c2C(C)C)cn2ncnc2c1C [Example 50] |
